Legend:
Assay type in all cases: functional
[1] = tested on: Athalia rosae ruficornis; assay: Pharmacophagous feeding stimulant activity in Athalia rosae ruficornis assessed as insect fed on paper for more than 10 seconds at 10^-6 g/filter paper
[2] = tested on: Athalia rosae ruficornis; assay: Pharmacophagous feeding stimulant activity in Athalia rosae ruficornis assessed as insect fed on paper for more than 10 seconds at 10^-8 g/filter paper
[3] = tested on: Athalia rosae ruficornis; assay: Pharmacophagous feeding stimulant activity in Athalia rosae ruficornis assessed as insect fed on paper for more than 10 seconds at 10^-5 g/filter paper
[4] = tested on: Athalia rosae ruficornis; assay: Pharmacophagous feeding stimulant activity in Athalia rosae ruficornis assessed as insect fed on paper for more than 10 seconds at 10^-7 g/filter paper

## CC(=O)OC[C@@]12[C@@H](OC(C)=O)C[C@@H](C)[C@](C)([C@@H]3C[C@H]4C=CO[C@H]4O3)[C@H]1CC[C@H](OC(C)=O)[C@]21CO1 [3-EPICARYOPTIN]
[1]
  Activity: 80%
[2]
  Activity: 80%
[3]
  Activity: 80%
[4]
  Activity: 80%

## CC(=O)OC[C@@]12[C@@H](OC(C)=O)C[C@@H](C)[C@](C)([C@@H]3C[C@H]4C=CO[C@H]4O3)[C@H]1C[C@@H](O)[C@H](OC(=O)C(C)C)[C@]21CO1 [AJUGACHIN A]
[1]
  Activity: 80%
[2]
  Activity: 80%
[3]
  Activity: 80%
[4]
  Activity: 80%

## C/C=C(\C)C(=O)O[C@@H]1CC[C@]2(CO2)[C@]2(COC(C)=O)[C@@H](OC(C)=O)C[C@@H](C)[C@](C)(C[C@H](O)C3=CC(=O)OC3)[C@@H]12 [AJUGAMARIN A1]
[1]
  Activity: <10%
[2]
  Activity: <10%
[3]
  Activity: <10%
[4]
  Activity: <10%

## C/C=C(\C)C(=O)O[C@@H]1CC[C@]2(CO2)[C@]2(COC(C)=O)[C@@H](OC(C)=O)C[C@@H](C)[C@](C)(C[C@H](OC(=O)[C@@H](C)CC)C3=CC(=O)OC3)[C@@H]12 [AJUGAMARIN G1]
[1]
  Activity: <10%
[2]
  Activity: <10%
[3]
  Activity: <10%
[4]
  Activity: <10%

## C/C=C(\C)C(=O)O[C@@H](C[C@@]1(C)[C@H](C)C[C@H](OC(C)=O)[C@]2(COC(C)=O)[C@@H]1[C@H](OC(=O)[C@@H](C)CC)CC[C@]21CO1)C1=CC(=O)OC1 [AJUGAMARIN H1]
[1]
  Activity: <10%
[2]
  Activity: <10%
[3]
  Activity: <10%
[4]
  Activity: <10%

## CC[C@H](C)C(=O)O[C@H]1CC(=O)[C@@H]2[C@@](C)(CCC3=CC(=O)OC3)[C@H](C)C[C@H](OC(C)=O)[C@@]2(COC(C)=O)[C@@]12CO2 [AJUGAREPTANSONE A]
[1]
  Activity: <10%
[2]
  Activity: <10%
[3]
  Activity: 10%
[4]
  Activity: <10%

## C/C=C(\C)C(=O)O[C@@H](C[C@@]1(C)[C@H](C)C[C@H](OC(C)=O)[C@]2(COC(C)=O)[C@@H]1[C@H](OC(=O)/C(C)=C/C)CC[C@]21CO1)C1=CC(=O)OC1 [AJUGATAKASIN A]
[1]
  Activity: <10%
[2]
  Activity: <10%
[3]
  Activity: <10%
[4]
  Activity: <10%

## CC[C@H](C)C(=O)O[C@@H](C[C@@]1(C)[C@H](C)C[C@H](OC(C)=O)[C@]2(COC(C)=O)[C@@H]1[C@H](OC(=O)[C@@H](C)CC)CC[C@]21CO1)C1=CC(=O)OC1 [AJUGATAKASIN B]
[1]
  Activity: <10%
[2]
  Activity: <10%
[3]
  Activity: <10%
[4]
  Activity: <10%

## CC[C@H](C)C(=O)O[C@@H](C[C@@]1(C)[C@H](C)C[C@H](OC(C)=O)[C@]2(COC(C)=O)[C@@H]1CC[C@H](O)[C@]21CO1)C1=CC(=O)OC1 [AJUGATANSIN B1]
[1]
  Activity: <10%
[2]
  Activity: <10%
[3]
  Activity: <10%
[4]
  Activity: <10%

## CC(=O)OC[C@@]12[C@@H](OC(C)=O)C[C@@H](C)[C@](C)([C@@H]3C[C@H]4C=CO[C@H]4O3)[C@H]1C[C@@H](O)[C@H](O)[C@]21CO1 [ATHALIADIOL]
[1]
  Activity: 80%
[2]
  Activity: 40%
[3]
  Activity: 80%
[4]
  Activity: 40%

## CC[C@H](C)C(=O)O[C@@H](C[C@@]1(C)[C@H](C)C[C@H](OC(C)=O)[C@]2(COC(C)=O)[C@@H]1C(=O)C[C@H](O)[C@]21CO1)C1=CC(=O)OC1 [Ajugareptone]
[1]
  Activity: <10%
[2]
  Activity: <10%
[3]
  Activity: <10%
[4]
  Activity: <10%

## CC[C@@](C)(OC(C)=O)C(=O)O[C@H]1[C@H](O)C[C@@H]2[C@@](C)([C@@H]3C[C@H]4C=CO[C@H]4O3)C(C)=C[C@H](OC(C)=O)[C@@]2(COC(C)=O)[C@@]12CO2 [CLERODENDRIN A]
[1]
  Activity: 40%
[2]
  Activity: <10%
[3]
  Activity: 40%
[4]
  Activity: <10%

## CC[C@@](C)(OC(C)=O)C(=O)O[C@H]1[C@H](O)C[C@@H]2[C@@](C)([C@@H]3C[C@H]4C=CO[C@H]4O3)[C@H](C)C[C@H](OC(C)=O)[C@@]2(COC(C)=O)[C@@]12CO2 [CLERODENDRIN B]
[1]
  Activity: 80%
[2]
  Activity: 40%
[3]
  Activity: 80%
[4]
  Activity: 80%

## CC[C@H](C)C(=O)O[C@H]1[C@H](O)C[C@@H]2[C@@](C)([C@@H]3C[C@H]4C=CO[C@H]4O3)[C@H](C)C[C@H](OC(C)=O)[C@@]2(COC(C)=O)[C@@]12CO2 [CLERODENDRIN D]
[1]
  Activity: 80%
[2]
  Activity: 80%
[3]
  Activity: 80%
[4]
  Activity: 80%

## CC(=O)OC[C@@]12[C@@H](OC(C)=O)C=C(C)[C@](C)([C@@H]3C[C@H]4C=CO[C@H]4O3)[C@H]1C[C@@H](O)[C@H](OC(=O)C(C)(C)OC(C)=O)[C@]21CO1 [CLERODENDRIN E]
[1]
  Activity: 10%
[2]
  Activity: <10%
[3]
  Activity: 10%
[4]
  Activity: <10%

## CC(=O)OC[C@@]12[C@@H](OC(C)=O)C=C(C)[C@](C)([C@@H]3C[C@H]4C=CO[C@H]4O3)[C@H]1C[C@@H](O)[C@H](OC(=O)[C@](C)(OC(C)=O)[C@@H](C)OC(C)=O)[C@]21CO1 [CLERODENDRIN F]
[1]
  Activity: 10%
[2]
  Activity: <10%
[3]
  Activity: 10%
[4]
  Activity: <10%

## CCC(C)C(=O)O[C@H]1[C@H](O)C[C@@H]2[C@@](C)([C@@H]3C[C@H]4C=CO[C@H]4O3)C(C)=C[C@H](OC(C)=O)[C@@]2(COC(C)=O)[C@@]12CO2 (some centres undefined) [CLERODENDRIN G]
[1]
  Activity: 40%
[2]
  Activity: <10%
[3]
  Activity: 40%
[4]
  Activity: <10%

## CC(=O)OC[C@@]12[C@@H](OC(C)=O)C[C@@H](C)[C@](C)([C@@H]3C[C@H]4C=CO[C@H]4O3)[C@H]1C[C@@H](O)[C@H](OC(=O)[C@](C)(OC(C)=O)[C@@H](C)OC(C)=O)[C@]21CO1 [CLERODENDRIN H]
[1]
  Activity: 80%
[2]
  Activity: 80%
[3]
  Activity: 80%
[4]
  Activity: 80%

## CC(=O)OC[C@@]12[C@@H](OC(C)=O)C=C(C)[C@](C)([C@@H]3C[C@H]4C=CO[C@H]4O3)[C@H]1C[C@@H](O)[C@H](OC(=O)[C@](C)(OC(C)=O)[C@H](C)OC(C)=O)[C@]21CO1 [CLERODENDRIN I]
[1]
  Activity: 10%
[2]
  Activity: <10%
[3]
  Activity: 10%
[4]
  Activity: <10%

## CC(=O)OC[C@@]12[C@@H](OC(C)=O)C[C@@H](C)[C@](C)([C@@H]3C[C@H]4C=CO[C@H]4O3)[C@H]1CCC[C@]21CO1 [CLERODIN]
[1]
  Activity: 80%
[2]
  Activity: 40%
[3]
  Activity: 80%
[4]
  Activity: 80%

## CCC(C)C(=O)O[C@@H]1CC[C@]2(CO2)[C@]2(COC(C)=O)[C@@H](OC(C)=O)C[C@@H](C)[C@](C)(C[C@H](O)C3=CC(=O)OC3)[C@@H]12 (some centres undefined) [DIHYDROAJUGAMARIN]
[1]
  Activity: <10%
[2]
  Activity: <10%
[3]
  Activity: <10%
[4]
  Activity: <10%

— ChEMBL document CHEMBL3044742, “Pharmacophagous feeding stimulant activity of neo-clerodane diterpenoids for the turnip sawfly, Athalia rosae ruficornis” (2004)
